Data published in patent publication US20040029910A1, “Protoberberine derivatives which inhibit activity of the mitogen-activated protein kinase” (priority 2000, published 2004).

Legend:
[1] = tested on: knock-out mutant of wis1 (JM544); assay: Growth (cell number) of wis1 knock-out mutant; type: cell-based, Schizosaccharomyces pombe; settings: for inhibition of the activity of Wis1 kinase, concluded from effects on knock-out mutants: conclusion from growth of knock-out mutants; for cell number: Table 5, wis1 knock-out, miconazole 3 ug/mL
Description: To investigate the effect of protoberberine derivatives on the growth of cells, the cells of each strain were cultured in rich medium YE^AU to exponential phase(5×10^7 cells/mL). […]

Wis1 kinase = target: T1, Wis1 kinase (Schizosaccharomyces pombe, UniProt P33886); assay: Wis1 kinase activity and autophosphorylation ([γ-32P]ATP, SDS-PAGE, FIG. 2); type: biochemical; settings: purified GST-Wis1, kinase reaction 30° C. 30 minutes, autophosphorylation also measured
T1 construct: The genes wis1 and spc1 were cloned into the pRep1 vector containing nmt1 promoter; made in house; host or cells: Schizosaccharomyces pombe KGY246 (pRep1 vector, nmt1 promoter)
T1 sequence (P33886 1-605): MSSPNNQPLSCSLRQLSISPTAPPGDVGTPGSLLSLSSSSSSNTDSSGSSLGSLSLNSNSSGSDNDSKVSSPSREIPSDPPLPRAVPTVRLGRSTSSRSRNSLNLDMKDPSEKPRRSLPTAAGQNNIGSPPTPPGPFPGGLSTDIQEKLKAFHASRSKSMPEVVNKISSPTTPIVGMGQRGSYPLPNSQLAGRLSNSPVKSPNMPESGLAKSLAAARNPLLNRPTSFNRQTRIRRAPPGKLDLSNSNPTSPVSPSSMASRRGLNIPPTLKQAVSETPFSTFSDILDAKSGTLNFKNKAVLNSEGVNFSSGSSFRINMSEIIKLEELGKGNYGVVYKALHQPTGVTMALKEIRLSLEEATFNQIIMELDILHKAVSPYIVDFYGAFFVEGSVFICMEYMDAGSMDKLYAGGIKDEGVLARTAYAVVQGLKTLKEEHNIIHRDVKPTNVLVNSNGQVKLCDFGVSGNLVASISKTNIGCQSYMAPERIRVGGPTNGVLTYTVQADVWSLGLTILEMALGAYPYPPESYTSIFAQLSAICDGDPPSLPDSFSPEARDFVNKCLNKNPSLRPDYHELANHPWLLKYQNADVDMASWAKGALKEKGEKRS
Description: The genes wis1 and spc1 were cloned into the pRep1 vector containing nmt1 promoter of which expression was inhibited by thiamin in the medium and able to tag GST. The KGY246 cells, wild type Schizosaccharomyces pombe cells were transformed with this plasmid. The expression of Wis1 and Spc1 kinase tagged with GST was induced by the cultivation of the transformed cells in MM^AU medium containing 0.4 mM thiamin followed by cultivation to exponential phase(5×10^6 cells) for about 20 hours in 100 mL of MM^AU medium in which thiamin was withdrawn. After osmotic shock(0.6M KCl) and oxidative stress were given to the cells expressing Wis1 and Spc1 tagged with GST for 25 minutes, cells were recovered at 4° C., washed with ice-cold PBS/NaF(50 mM)/NaN3(1 mM) buffer and HB buffer(25 mM HEPES, pH 7.5, 60 mM β-glycerophosphate, 15 mM EGTA, 0.1 mM Na vanadate, 0.1% triton and hydrolyzed using glass bead and bead beater purchased from Sigma. The supernatant of hydrolyzed cells was incubated with 100 mM NaCl for salting-out to remove unnecessary proteins. After the supernatant was incubated with 0.045 g/ml GST beads for 1.5 hours, proteins not bound to GST beads were removed. Purified Wis1 and Spc1 kinases were separated on 7% SDS-PAGE and the degree of purification was confirmed by western blotting using GST antibody.
Before Wis1 and Spc1 kinases purified in example 4 were analyzed, they were pre-incubated in analyzing buffer of kinase (50 mM Tris-Cl pH7.4, 20 mM MgCl2, 5 mM EGTA, 2 mM Na vanadate, 1 mM DTT). The kinase reaction was performed at 30° C. for 30 minutes in the presence of 1 mg/ml myelin basic protein(MBP), 1 mM ATP and 20 uCi of [γ-^32p]ATP and then terminated by adding SDS sample buffer and heating at 90° C. for 5 minutes. The reaction mixtures were separated on SDS-polyacrylamide gel electrophoresis. After fixation with 10% acetic acid: 10% methanol and drying, the gel was exposed on X-ray film. When Wis1 is activated by stimulus, it also activates autophosphorylation. Therefore, the degree of Wis1 autophosphorylation was also measured.

[2] = tested on: knock-out mutant of spc1 (KS1366); assay: Growth (cell number) of spc1 knock-out mutant; type: cell-based, Schizosaccharomyces pombe; settings: Table 6, spc1 knock-out, miconazole 3 ug/mL
Description: To investigate the effect of protoberberine derivatives on the growth of cells, the cells of each strain were cultured in rich medium YE^AU to exponential phase(5×10^7 cells/mL). […] Then cell number was measured every 3 hours.

[3] = tested on: knock-out mutant of spm1 in Mhk1-Spm1 pathway (TZs69); assay: Growth (cell number) of spm1 knock-out mutant; type: cell-based, Schizosaccharomyces pombe; settings: Table 4, spm1 knock-out, miconazole 3 ug/mL
Description: (§1) To investigate the effect of protoberberine derivatives on the growth of cells, the cells of each strain were cultured in rich medium YE^AU to exponential phase(5×10^7 cells/mL). These cells were transferred to YE^AU medium and cultured for 12 hours. Then cell number was measured every 3 hours.

[4] = tested on: knock-out mutant of byr2 in Ras-Byr2 pathway (SPSU); assay: Growth (cell number) of byr2 knock-out mutant; type: cell-based, Schizosaccharomyces pombe; settings: Table 3, byr2 knock-out, miconazole 3 ug/mL
Description: as §1

Compound | inhibition of the activity of Wis1 kinase, concluded from effects on knock-out mutants [1] | inhibition of Wis1 kinase activity (in words) (Wis1 kinase) | other results
COc1ccc2c(Cc3ccc(C)cc3)c3[n+](cc2c1OC)CCc1cc2c(cc1-3)OCO2.[Cl-] [13-(4-methylbenzyl)berberine chloride] | inhibited | directly inhibited | 
COc1ccc2c(Cc3c(F)cccc3Cl)c3[n+](cc2c1OC)CCc1cc2c(cc1-3)OCO2 [13-(2-chloro-6-fluorobenzyl)berberine chloride] | inhibited | directly inhibited | 
COc1ccc2c(Cc3ccc(C(C)C)cc3)c3[n+](cc2c1OC)CCc1cc2c(cc1-3)OCO2.[Cl-] [13-(4-i-propylbenzyl)berberine chloride] | inhibited | directly inhibited | 
COc1ccc2c(Cc3ccc(C)c([N+](=O)[O-])c3)c3[n+](cc2c1OC)CCc1cc2c(cc1-3)OCO2.[Cl-] [13-(4-methyl-3-nitrobenzyl)berberine chloride] | inhibited | directly inhibited | 
COc1ccc2c(Cc3c(F)c(F)c(F)c(F)c3F)c3[n+](cc2c1OC)CCc1cc2c(cc1-3)OCO2 [13-(2,3,4,5,6-pentafluorobenzyl)berberine chloride] | inhibited | directly inhibited | 
COc1ccc2c(Cc3cccc(Br)c3)c3[n+](cc2c1OC)CCc1cc2c(cc1-3)OCO2 [13-(3-bromobenzyl)berberine iodide] | inhibited | directly inhibited | 
COc1ccc2c(Cc3cccc(C(F)(F)F)c3)c3[n+](cc2c1OC)CCc1cc2c(cc1-3)OCO2.[Cl-] [13-(3-trifluoromethylbenzyl)berberine chloride] | inhibited | directly inhibited | 
COc1ccc2c(Cc3ccc(C)cc3C)c3[n+](cc2c1OC)CCc1cc2c(cc1-3)OCO2.[Cl-] [13-(2,4-dimethylbenzyl)berberine chloride] | inhibited | directly inhibited | 
COc1ccc2c(Cc3cccc(Cl)c3Cl)c3[n+](cc2c1OC)CCc1cc2c(cc1-3)OCO2.[Cl-] [13-(2,3-dichlorobenzyl)berberine chloride] | inhibited | directly inhibited | 
COc1ccc2c(Cc3ccc(Cl)cc3)c3[n+](cc2c1OC)CCc1cc2c(cc1-3)OCO2.[I-] [13-(4-chlorobenzyl)berberine iodide] | inhibited | directly inhibited | 
COc1ccc2c(Cc3ccccc3)c3[n+](cc2c1OC)CCc1cc2c(cc1-3)OCO2.[I-] [13-benzylberberine iodide] | inhibited | directly inhibited | 
COC(=O)c1ccc(Cc2c3[n+](cc4c(OC)c(OC)ccc24)CCc2cc4c(cc2-3)OCO4)cc1 [13-(4-methoxycarbonylbenzyl)berberine chloride] | inhibited | directly inhibited | 
Clc1ccc(COC(Cn2ccnc2)c2ccc(Cl)cc2Cl)c(Cl)c1 (stereo not shown) [miconazole, reference compound] |  |  | cell number ([1]; time 12): 35; cell number ([1]; time 15): 37; cell number ([1]; time 18): 25; cell number ([1]; time 21): 19; cell number ([1]; time 24): 12; cell number ([2]; time 12): 15; cell number ([2]; time 15): 9; cell number ([2]; time 18): 12; cell number ([2]; time 21): 18; cell number ([2]; time 24): 17; cell number ([3]; time 12): 28; cell number ([3]; time 15): 27; cell number ([3]; time 18): 23; cell number ([3]; time 21): 34; cell number ([3]; time 24): 26; cell number ([4]; time 12): 32; cell number ([4]; time 15): 19; cell number ([4]; time 18): 31; cell number ([4]; time 21): 30; cell number ([4]; time 24): 27
COc1ccc(Cc2c3[n+](cc4c(OC)c(OC)ccc24)CCc2cc4c(cc2-3)OCO4)cc1 [13-(4-methoxybenzyl)berberine chloride] | inhibited | directly inhibited | 
COc1ccc2c(Cc3ccc(F)cc3C(F)(F)F)c3[n+](cc2c1OC)CCc1cc2c(cc1-3)OCO2.[Cl-] [13-(4-fluoro-2-trifluoromethylbenzyl)berberine chloride] | inhibited | directly inhibited | 
COc1ccc2c(Cc3c(F)c(F)c(C(F)(F)F)c(F)c3F)c3[n+](cc2c1OC)CCc1cc2c(cc1-3)OCO2.[Cl-] [13-(2,3,5,6-tetrafluoro-4-trifluoromethylbenzyl)berberine chloride] | inhibited | directly inhibited | 
COc1ccc2c(Cc3ccc(OC(F)(F)F)cc3)c3[n+](cc2c1OC)CCc1cc2c(cc1-3)OCO2.[Cl-] [13-(4-trifluoromethoxybenzyl)berberine chloride] | inhibited | directly inhibited | 
